Results taken from patent publication US20190308035A1, “A NON-INVASIVE METHOD FOR SELECTIVE NEURAL STIMULATION BY ULTRASOUND” (priority 2018, published 2019).
“Also recorded” adds a separate entry of the source. Bridge positions count the residues as written; N and C are the ends. Ends that are not written are not given here.

Experiments:
Piezo1 [1] = molecular target: T1, Piezo1 (Mus musculus, UniProt E2JF22); experiment: Western blot of p-CaMKII and p-CREB in CLU199 cells; assay type: cell-based; design: Expression of Piezo1 in CLU199 cells was confirmed through RT-PCR; host or cells: mHippoE-18 (CLU199) embryonic mouse hippocampal cell line
T1 sequence (E2JF22 whole entry): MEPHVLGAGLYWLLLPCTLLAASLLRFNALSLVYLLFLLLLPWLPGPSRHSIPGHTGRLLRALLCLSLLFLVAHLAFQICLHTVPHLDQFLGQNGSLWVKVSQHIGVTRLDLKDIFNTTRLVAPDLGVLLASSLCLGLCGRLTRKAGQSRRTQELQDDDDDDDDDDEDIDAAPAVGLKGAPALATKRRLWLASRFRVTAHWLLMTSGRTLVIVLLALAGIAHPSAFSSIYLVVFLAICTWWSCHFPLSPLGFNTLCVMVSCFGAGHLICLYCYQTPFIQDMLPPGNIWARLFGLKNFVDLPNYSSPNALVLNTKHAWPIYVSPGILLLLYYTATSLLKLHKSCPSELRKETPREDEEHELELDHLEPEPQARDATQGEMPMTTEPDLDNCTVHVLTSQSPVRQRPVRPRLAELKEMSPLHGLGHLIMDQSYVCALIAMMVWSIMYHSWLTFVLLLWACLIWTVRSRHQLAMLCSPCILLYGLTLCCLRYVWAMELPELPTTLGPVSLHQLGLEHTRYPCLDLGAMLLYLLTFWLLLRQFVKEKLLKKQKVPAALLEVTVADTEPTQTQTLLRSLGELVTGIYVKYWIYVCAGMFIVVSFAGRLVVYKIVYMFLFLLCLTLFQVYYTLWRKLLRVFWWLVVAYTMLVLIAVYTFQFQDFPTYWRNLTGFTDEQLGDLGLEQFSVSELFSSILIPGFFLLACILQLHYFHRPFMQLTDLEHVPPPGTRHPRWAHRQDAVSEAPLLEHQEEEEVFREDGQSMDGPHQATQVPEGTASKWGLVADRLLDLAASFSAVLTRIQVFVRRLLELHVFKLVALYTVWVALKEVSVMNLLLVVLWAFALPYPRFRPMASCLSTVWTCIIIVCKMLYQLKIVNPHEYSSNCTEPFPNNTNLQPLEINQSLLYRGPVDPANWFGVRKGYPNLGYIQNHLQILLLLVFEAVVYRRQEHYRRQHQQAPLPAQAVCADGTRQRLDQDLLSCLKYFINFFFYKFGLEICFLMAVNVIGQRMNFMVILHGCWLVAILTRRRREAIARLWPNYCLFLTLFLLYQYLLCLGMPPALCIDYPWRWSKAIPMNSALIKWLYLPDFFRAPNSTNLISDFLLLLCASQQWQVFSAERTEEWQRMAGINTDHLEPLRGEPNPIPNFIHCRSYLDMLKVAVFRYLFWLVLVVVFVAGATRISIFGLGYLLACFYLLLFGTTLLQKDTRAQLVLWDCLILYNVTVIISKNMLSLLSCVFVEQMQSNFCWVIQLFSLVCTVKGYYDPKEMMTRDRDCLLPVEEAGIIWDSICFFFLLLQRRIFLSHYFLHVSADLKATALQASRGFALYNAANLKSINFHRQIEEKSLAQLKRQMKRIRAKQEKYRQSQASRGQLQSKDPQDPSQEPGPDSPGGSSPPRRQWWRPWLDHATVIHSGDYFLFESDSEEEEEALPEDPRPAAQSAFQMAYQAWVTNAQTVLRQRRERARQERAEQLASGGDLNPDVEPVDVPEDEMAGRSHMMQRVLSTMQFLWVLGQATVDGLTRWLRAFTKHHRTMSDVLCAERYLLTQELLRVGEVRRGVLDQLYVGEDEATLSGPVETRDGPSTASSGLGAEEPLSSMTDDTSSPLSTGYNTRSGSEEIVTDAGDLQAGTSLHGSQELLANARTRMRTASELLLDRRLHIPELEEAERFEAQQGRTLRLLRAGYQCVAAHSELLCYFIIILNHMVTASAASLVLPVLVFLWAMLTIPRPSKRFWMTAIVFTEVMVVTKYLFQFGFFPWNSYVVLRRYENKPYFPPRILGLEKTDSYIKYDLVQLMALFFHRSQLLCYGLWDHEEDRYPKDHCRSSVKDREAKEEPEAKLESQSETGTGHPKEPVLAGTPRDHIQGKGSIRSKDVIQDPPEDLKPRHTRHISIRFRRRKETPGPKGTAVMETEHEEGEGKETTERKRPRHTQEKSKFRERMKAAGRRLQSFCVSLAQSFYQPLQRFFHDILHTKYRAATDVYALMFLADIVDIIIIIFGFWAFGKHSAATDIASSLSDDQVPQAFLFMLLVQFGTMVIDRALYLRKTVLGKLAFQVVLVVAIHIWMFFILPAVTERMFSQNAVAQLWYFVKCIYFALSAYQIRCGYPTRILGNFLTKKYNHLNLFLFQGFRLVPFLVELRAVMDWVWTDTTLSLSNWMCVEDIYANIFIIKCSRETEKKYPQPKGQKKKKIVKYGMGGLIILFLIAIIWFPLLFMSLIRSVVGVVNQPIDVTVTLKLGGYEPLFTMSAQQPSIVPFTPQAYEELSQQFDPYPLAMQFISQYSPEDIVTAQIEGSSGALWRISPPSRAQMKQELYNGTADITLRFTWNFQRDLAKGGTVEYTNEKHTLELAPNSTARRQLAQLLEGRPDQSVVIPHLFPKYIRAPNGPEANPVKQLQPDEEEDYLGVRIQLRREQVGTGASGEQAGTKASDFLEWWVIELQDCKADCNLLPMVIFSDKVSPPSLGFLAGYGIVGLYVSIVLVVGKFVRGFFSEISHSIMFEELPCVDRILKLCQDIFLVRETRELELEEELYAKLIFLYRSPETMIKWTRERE
Procedure: To evaluate effects on cell signalling, the phosphorylated forms of the Calcium/calmodulin-dependent protein kinase type II (p-CaMKII), and the transcription factor CREB (p-CREB) (28), both crucial players in Ca2+ signalling were analysed.
0.3 MPa ultrasound was then used to treat CLU199 cells with or without Yodal, or the Piezo1 blocker GsMTx-4 [7].
SMARTpool ON-TARGETplus Piezo1 siRNA (L-061455-00-0005) and ON-TARGETplus Non-Targeting Pool (D-001810-10) siRNA were obtained from Dharmacon. Transfection complexes were prepared by incubating siRNA with Lipofectamine RNAiMAX (Invitrogen) in Opti-MEM for 5 minutes at room temperature. 300 μl of complexes added per 35 mm dish or collagen-coated coverslips (5 μg/cm2). 1.5×10^6 cells were added per dish in fully-supplemented DMEM such that the final siRNA concentration was 125 nM. Cells were incubated for 48 hours post-transfection, and then used for further experiments.
(§1) CLU199 cells or primary cortical neurons at DIV 10 were treated with ultrasound at acoustic pressures of 0.1, 0.3 or 0.5 MPa for 20 minutes with 20 s interval inside a humified incubator, 37° C., 5% CO2. The ultrasonic stimulation system and treatment parameters are the same as those described in section 4. Yodal (Tocris Bioscience) was used as a Piezo1 agonist with a concentration of 1 μM, while GsMTx-4 (Abcam) was used as a Piezo1 blocker at a concentration of 10 μM. Yodal was added to culture media, followed by a 20-minute incubation or immediate ultrasound treatment. GsMTx-4 was added to culture media, allowed for 30 minutes incubation, and followed by a further 20-minute incubation or ultrasound treatment.
Cells were lysed with RIPA buffer (EMD Millipore), supplemented with 1× Halt™ Protease and Phosphatase Inhibitor Cocktail (Thermo Fisher Scientific) on ice, centrifuged to clear the lysate, and protein concentrations measured using the Bio-Rad protein assay. 30 or 50 μg total protein per well was loaded on 10% SDS-PAGE gels, electrophoresed, and transferred to methanol-activated PVDF membranes. Membranes were blocked with 3% BSA in Tris-buffered-saline+0.05% Tween-20 (TBST). Membranes were incubated in primary antibody diluted in 5% BSA in TBST overnight, washed with TBST and incubated in secondary antibody solutions, diluted in blocking buffer, for 1 hour at room temperature. […]
Protein levels were quantified through image densitometry using ImageJ. Protein levels were expressed as a fold change compared to the untreated control, an average ±SEM of at least three independent experiments, except in FIG. 2E. Statistical significance was calculated using a two-tailed unpaired student's t-test and P values below 0.05 were considered significant.

CLU199 cells = experiment: qPCR array of cAMP/calcium signalling genes in CLU199 cells; assay type: cell-based, mouse; settings: array of 84 genes, Yodal 1 μM, vs untreated control
Procedure: Ultrasonic effects in CLU199 cells were explored using a qPCR array that probes 84 genes known to have Ca2+ responsive elements of various kinds.
A qRT-PCR array that explores genes that regulate calcium-related signalling (RT2 Pathway Finder) was used to evaluate how ultrasound treatment affects cellular signalling. Cells were also either pre-treated with GsMTx-4 (10 μM) before ultrasound or treated with Yodal (1 μM) by way of comparison. Results of the PCR were uploaded to Qiagen/SABiosciences online suite for data analysis, and clustergrams were generated using this software. Information about various subgroups of genes described here (FIG. 2J) were obtained from the product literature.
CLU199 cells seeded in 35 mm dishes were treated with ultrasound, Yodal or GsMTx-4 as appropriate. Total RNA was collected as described in section 7, and the concentration measured on NanoDrop™ One (Thermo Fisher Scientific). Samples with 260/280>1.8 and 260/230>2.0 were run on a 1% agarose gel containing bleach to check for RNA integrity (2). […] Ct values were calculated using the Quantstudio™ software, exported into a spreadsheet and uploaded to SABiosciences' online array data analysis software (accessible at: http://pcrdataanalysis.sabiosciences.com/per/arrayanalysis.php). […] Resulting clustergrams and a spreadsheet containing the analyzed results were obtained from this software. […]

Piezo1 [2] = molecular target: T1, Piezo1; experiment: Calcium imaging (Cal590) in 293T cells overexpressing Piezo1; assay type: cell-based; design: EGFP; expressed in transfected cells; host or cells: 293T cells (ATCC), pcDNA3.1 Piezo1-EGFP plasmid provided by Dr. Ardem Patapoutian; settings: Yodal; 293T cells overexpressing Piezo1 vs control cells
Piezo1 [3] = molecular target: T1, Piezo1; experiment: Immunocytochemical staining of c-Fos, p-CaMKII and p-CREB in primary cortical neurons; assay type: cell-based; design: Expression of Piezo1 in CLU199 cells was confirmed through RT-PCR; host or cells: mHippoE-18 (CLU199) embryonic mouse hippocampal cell line; settings: GsMTx-4 10 μM followed by 0.3 MPa ultrasound
Procedure: The expression of c-Fos, p-CaMKII and p-CREB was investigated by immunocytochemical staining in primary cortical neurons untreated, treated by ultrasound or treated with GsMTx-4 (10 μM) followed by ultrasound. Each stimulus contained 200 cycles, at 1 kHz RPF with 200 NTB of 500 kHz ultrasound at 0.3 MPa and the results are shown in FIG. 2I.
Primary cortical neurons from embryonic mice brains were harvested as described previously with slight modifications. Briefly, pregnant mice were sacrificed at E16.5-E17, and brains from the embryonic mice were collected. They were then dissected under a microscope to separate the cortex from the other brain mass. Cortical cells were dispersed and seeded into culture dishes or collagen-coated glass coverslips (4 μg/cm2). At DIV 10, the cells were used for further experiments.
as §1
CLU199 cells and primary neurons at DIV 10, including treated with (+) or without (−) ultrasound, were fixed using 4% paraformaldehyde+PBS and permeabilized using 0.1% Triton X-100+PBS. […] The number of c-Fos+ cells were determined by counting the number of DAPI and c-Fos signals co-located with DAPI from 10 FOVs photographed per condition. Results were expressed as a percentage of c-Fos versus DAPI signals, and were subjected to a one-way ANOVA followed by a post-hoc Tukey test. […]

[4] = Yodal 1 μM alone, vs untreated control
[5] = GsMTx-4 10 μM incubation before 0.3 MPa ultrasound

Compound: Clc1cccc(Cl)c1CSc1nnc(-c2cnccn2)s1 [Yodal]
- p-CREB level (Piezo1 [1]; [4]): increased; also recorded: upregulate
- p-CaMKII level (Piezo1 [1]; [4]): increased; also recorded: upregulate
- number of genes co-downregulated by ultrasound and Yodal (CLU199 cells): 23
- number of genes co-upregulated by ultrasound and Yodal (CLU199 cells): 43
- calcium influx (Piezo1 [2]): Significant Ca2+ increase; also recorded: significantly higher calcium influx

Compound: GsMTx-4: Piezo1-specific blocker (Abcam), used at 10 μM (GCLEFWWKCNPNDDKCCRPKLKCSKLFKLCNFSF-NH2; disulfide 16-30, 2-17, 9-23; ends not checked)
- p-CREB level after ultrasound (Piezo1 [1]; [5]): reduced to levels comparable to those in the untreated control; also recorded: inhibits this effect
- p-CaMKII level after ultrasound (Piezo1 [1]; [5]): reduced to levels comparable to those in the untreated control; also recorded: inhibits this effect
- level of p-CREB (Piezo1 [3]): affected
- level of p-CaMKII (Piezo1 [3]): affected
- ultrasound-induced c-Fos expression in the nuclei (Piezo1 [3]): inhibited this effect
